{"source": "patent US9512089B2", "about": "“Tetrazole-substituted arylamides as P2X3 and P2X2/3 antagonists” (Roche Palo Alto LLC, priority 2007, dated 2016)", "molecular_target": "T1, P2X2/3 receptor (Homo sapiens, UniProt P56373+Q9UBL9)", "T1 construct": "expressed in transfected cells; host or cells: CHO-K1", "T1 sequence (P56373 1-397)": "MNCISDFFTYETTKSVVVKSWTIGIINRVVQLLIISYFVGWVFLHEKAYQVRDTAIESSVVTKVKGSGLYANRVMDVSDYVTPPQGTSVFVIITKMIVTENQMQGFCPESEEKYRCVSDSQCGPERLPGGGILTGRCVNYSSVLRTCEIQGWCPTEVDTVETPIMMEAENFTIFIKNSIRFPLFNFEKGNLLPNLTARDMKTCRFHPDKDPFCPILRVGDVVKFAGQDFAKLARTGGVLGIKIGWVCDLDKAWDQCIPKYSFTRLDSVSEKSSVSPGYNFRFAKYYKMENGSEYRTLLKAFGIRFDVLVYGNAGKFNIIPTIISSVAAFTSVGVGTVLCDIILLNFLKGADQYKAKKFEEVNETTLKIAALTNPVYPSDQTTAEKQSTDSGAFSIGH", "T1 sequence (Q9UBL9 1-471)": "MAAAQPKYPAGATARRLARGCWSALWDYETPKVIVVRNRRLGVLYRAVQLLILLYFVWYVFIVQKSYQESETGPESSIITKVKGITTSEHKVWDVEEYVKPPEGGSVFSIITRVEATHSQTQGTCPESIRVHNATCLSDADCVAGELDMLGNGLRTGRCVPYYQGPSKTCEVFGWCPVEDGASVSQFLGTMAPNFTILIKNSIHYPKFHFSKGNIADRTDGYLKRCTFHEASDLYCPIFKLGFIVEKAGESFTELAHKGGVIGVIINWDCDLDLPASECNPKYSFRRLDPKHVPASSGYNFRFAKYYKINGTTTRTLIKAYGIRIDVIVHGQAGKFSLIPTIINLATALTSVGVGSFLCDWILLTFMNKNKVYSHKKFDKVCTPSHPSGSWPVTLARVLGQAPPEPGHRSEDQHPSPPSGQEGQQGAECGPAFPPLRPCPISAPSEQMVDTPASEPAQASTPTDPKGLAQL", "test": "P2X2/3 FLIPR (Fluorometric Imaging Plate Reader) assay", "assay_type": "cell-based", "conditions": "CHO-K1 cells transfected with human P2X2/3; agonist α,β-meATP 5 μM; Fluo-3 fluorescence", "method": "CHO-K1 cells were transfected with cloned rat P2X3 or human P2X2/3 receptor subunits and passaged in flasks. 18-24 hours before the FLIPR experiment, cells were released from their flasks, centrifuged, and resuspended in nutrient medium at 2.5×10^5 cells/ml. The cells were aliquoted into black-walled 96-well plates at a density of 50,000 cells/well and incubated overnight in 5% CO2 at 37° C. On the day of the experiment, cells were washed in FLIPR buffer (calcium- and magnesium-free Hank's balanced salt solution, 10 mM HEPES, 2 mM CaCl2, 2.5 mM probenecid; FB). Each well received 100 μl FB and 100 μl of the fluorescent dye Fluo-3 AM [2 μM final conc.]. […]\nTest compounds (dissolved in DMSO at 10 mM and serially diluted with FB) or vehicle were added to each well (25 μl of a 4× solution) and allowed to equilibrate for 20 minutes at room temperature. The plates were then placed in the FLIPR and a baseline fluorescence measurement (excitation at 488 nm and emission at 510-570 nm) was obtained for 10 seconds before a 100 μl/well agonist or vehicle addition. […] Fluorescence was measured for an additional 2 minutes at 1 second intervals after agonist addition. A final addition of ionomycin (5 μM, final concentration) was made to each well of the FLIPR test plate to establish cell viability and maximum fluorescence of dye-bound cytosolic calcium. […]"}
{"compound": "CCc1nnnn1-c1cc(C(=O)NC(C)c2cnccn2)cc(-c2ccc(C)cc2)c1", "note": "(stereo not shown) [5-(5-ethyl-tetrazol-1-yl)-4′-methyl-biphenyl-3-carboxylic acid (1-pyrazin-2-yl-ethyl)-amide]", "values": [{"measurement": "IC50", "value": "~7.94", "unit": "nM"}]}
